# According to the supplement of paper PMC9663587:
# Key:
# TGX221 = compound: CC1=CN2C(=O)C=C(N=C2C(=C1)C(C)NC3=CC=CC=C3)N4CCOCC4 [TGX221]
# Saracatinib/AZD0530 = compound: CN1CCN(CCOc2cc(OC3CCOCC3)c3c(Nc4c(Cl)ccc5c4OCO5)ncnc3c2)CC1 [Saracatinib/AZD0530]
# Ipatasertib/GDC0068 = compound: CC(C)NC[C@@H](C(=O)N1CCN(c2ncnc3c2[C@H](C)C[C@H]3O)CC1)c1ccc(Cl)cc1 [Ipatasertib/GDC0068]
# LEE011/Ribociclib = compound: CN(C)C(=O)c1cc2cnc(Nc3ccc(N4CCNCC4)cn3)nc2n1C1CCCC1 [LEE011/Ribociclib]
# R0-3306 = compound: C1=CC2=C(C=CC(=C2)C=C3C(=O)NC(=NCC4=CC=CS4)S3)N=C1 [R0-3306]
# AZD7762 = compound: NC(=O)Nc1cc(-c2cccc(F)c2)sc1C(=O)N[C@H]1CCCNC1 [AZD7762]
# AZD1775 = compound: C=CCn1c(=O)c2cnc(Nc3ccc(N4CCN(C)CC4)cc3)nc2n1-c1cccc(C(C)(C)O)n1 [AZD1775]
# Flavopiridol = compound: CN1CC[C@H](c2c(O)cc(O)c3c(=O)cc(-c4ccccc4Cl)oc23)[C@H](O)C1 [Flavopiridol]
# [1] = compound: CCCCOc1c(C(=O)c2c(F)cc(C)cc2F)c[nH]c2nncc1-2
# THZ-P1-2 = compound: CN(C)C/C=C/C(=O)NC1=CC=C(C=C1)C(=O)NC2=CC=CC(=C2)NC3=NC=NC(=C3)C4=CNC5=CC=CC=C54 [THZ-P1-2]
# Luminespib/NVP-AUY922 = compound: CCNC(=O)c1noc(-c2cc(C(C)C)c(O)cc2O)c1-c1ccc(CN2CCOCC2)cc1 [Luminespib/NVP-AUY922]
# ABT-737 = compound: CN(C)CC[C@H](CSc1ccccc1)Nc1ccc(S(=O)(=O)NC(=O)c2ccc(N3CCN(Cc4ccccc4-c4ccc(Cl)cc4)CC3)cc2)cc1[N+](=O)[O-] [ABT-737]
# [2] = compound: COc1ccc2c(c1)[C@]1(C[C@H]1c1ccc3c(/C=C/c4ccc(CN5C[C@@H](C)O[C@@H](C)C5)cc4)n[nH]c3c1)C(=O)N2
# [3] = compound: Cc1nn(C)c(COc2ccc(N3CCN(S(=O)(=O)N(C)C)CC3)cc2)c1-c1cccc2c(CCCOc3cccc4ccccc34)c(C(=O)O)n(CCN3CCOCC3)c12
# Torin2 = compound: C1=CC(=CC(=C1)N2C(=O)C=CC3=CN=C4C=CC(=CC4=C32)C5=CN=C(C=C5)N)C(F)(F)F [Torin2]
# Buparlisib/NVP-BKM120 = compound: Nc1cc(C(F)(F)F)c(-c2cc(N3CCOCC3)nc(N3CCOCC3)n2)cn1 [Buparlisib/NVP-BKM120]
# THZ1 = compound: CN(C)C/C=C/C(=O)Nc1ccc(C(=O)Nc2cccc(Nc3ncc(Cl)c(-c4c[nH]c5ccccc45)n3)c2)cc1 [THZ1]
# Tivantinib/ARQ197 = compound: O=C1NC(=O)[C@@H](c2cn3c4c(cccc24)CCC3)[C@@H]1c1c[nH]c2ccccc12 [Tivantinib/ARQ197]
# AZD5363 = compound: NC1(C(=O)N[C@@H](CCO)c2ccc(Cl)cc2)CCN(c2nc[nH]c3nccc2-3)CC1 [AZD5363]
# Paclitaxel = compound: CC(=O)O[C@H]1C(=O)[C@@]2(C)[C@H]([C@H](OC(=O)c3ccccc3)[C@]3(O)C[C@H](OC(=O)[C@H](O)[C@@H](NC(=O)c4ccccc4)c4ccccc4)C(C)=C1C3(C)C)[C@]1(OC(C)=O)CO[C@@H]1C[C@@H]2O [Paclitaxel]
# Pictilisib/GDC0941 = compound: CS(=O)(=O)N1CCN(Cc2cc3nc(-c4cccc5[nH]ncc45)nc(N4CCOCC4)c3s2)CC1 [Pictilisib/GDC0941]
# [4] = compound: CCC1=CN=CN=C1N2CCN(CC2)CC3=NC4=C(N3)C=C(C=C4)C(F)(F)F
# SHP099 = compound: CC1(CCN(CC1)C2=CN=C(C(=N2)N)C3=C(C(=CC=C3)Cl)Cl)N [SHP099]
# [5] = compound: CNc1nc(-c2ccc3c(N)n[nH]c3c2)cc(N2C[C@@H](C(=O)NC3CCCCC3)CC[C@H]2C)n1
# [6] = compound: CCN1CCN(Cc2ccc(Nc3ncc(F)c(-c4cc(F)c5nc(C)n(C(C)C)c5c4)n3)nc2)CC1
# senexin b = compound: CN1CCN(C(=O)c2ccc3cc(CCNc4ncnc5ccc(C#N)cc45)ccc3c2)CC1 [senexin b]
# Alpelisib/BYL719 = compound: Cc1nc(NC(=O)N2CCC[C@H]2C(N)=O)sc1-c1ccnc(C(C)(C)C(F)(F)F)c1 [Alpelisib/BYL719]
# Cediranib/AZD2171 = compound: COc1cc2c(Oc3ccc4[nH]c(C)cc4c3F)ncnc2cc1OCCCN1CCCC1 [Cediranib/AZD2171]
# Olaparib/AZD2281 = compound: O=C(c1cc(Cc2n[nH]c(=O)c3ccccc23)ccc1F)N1CCN(C(=O)C2CC2)CC1 [Olaparib/AZD2281]
# [7] = compound: CCc1cnn2c(NCc3ccc[n+]([O-])c3)cc(N3CCCC[C@H]3CCO)nc12
# BVD523 = compound: CC(C)Nc1cc(-c2c[nH]c(C(=O)N[C@H](CO)c3cccc(Cl)c3)c2)c(Cl)cn1 [BVD523]
# AZD6738 = compound: C[C@@H]1COCCN1c1cc(C2([S@](C)(=N)=O)CC2)nc(-c2cc[nH]c3nccc2-3)n1 [AZD6738]
# Cabozantinib = compound: COc1cc2nccc(Oc3ccc(NC(=O)C4(C(=O)Nc5ccc(F)cc5)CC4)cc3)c2cc1OC [Cabozantinib]
# 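Note: breast cancer and non-malignant breast epithelial cell lines, Deep Dye Drop or Dye Drop imaging, nine half-log doses, GR normalized to time-zero plates and DMSO-only controls.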
Cell Line,"GR50, 72 h (TGX221)","GR50, 72 h (Saracatinib/AZD0530)","GR50, 72 h (Ipatasertib/GDC0068)","GR50, 72 h (LEE011/Ribociclib)","GR50, 72 h (R0-3306)","GR50, 72 h (AZD7762)","GR50, 72 h (AZD1775)","GR50, 72 h (Flavopiridol)","GR50, 72 h [1]","GR50, 72 h (THZ-P1-2)","GR50, 72 h (Luminespib/NVP-AUY922)","GR50, 72 h (ABT-737)","GR50, 72 h [2]","GR50, 72 h [3]","GR50, 72 h (Torin2)","GR50, 72 h (Buparlisib/NVP-BKM120)","GR50, 72 h (THZ1)","GR50, 72 h (Tivantinib/ARQ197)","GR50, 72 h (AZD5363)","GR50, 72 h (Paclitaxel)","GR50, 72 h (Pictilisib/GDC0941)","GR50, 72 h [4]","GR50, 72 h (SHP099)","GR50, 72 h [5]","GR50, 72 h [6]","GR50, 72 h (senexin b)","GR50, 72 h (Alpelisib/BYL719)","GR50, 72 h (Cediranib/AZD2171)","GR50, 72 h (Olaparib/AZD2281)","GR50, 72 h [7]","GR50, 72 h (BVD523)","GR50, 72 h (AZD6738)","GR50, 72 h (Cabozantinib)"
MDAMB231,> 10 µM,2.33 µM,> 10 µM,0.995 µM,8.73 µM,0.163 µM,0.0633 µM,0.139 µM,1.16 µM,4.94 µM,0.0058 µM,3.03 µM,0.00366 µM,> 10 µM,0.0251 µM,1.51 µM,0.0662 µM,0.416 µM,> 10 µM,0.00232 µM,5.32 µM,> 10 µM,> 10 µM,> 10 µM,0.0468 µM,> 10 µM,> 10 µM,5.1 µM,> 10 µM,0.0103 µM,1.13 µM,8.89 µM,4.83 µM
T47D,> 10 µM,3.95 µM,0.136 µM,0.0057 µM,7.12 µM,2.37 µM,5.09 µM,0.116 µM,0.0149 µM,2.22 µM,0.00607 µM,> 10 µM,0.00463 µM,> 10 µM,0.00602 µM,0.248 µM,0.0293 µM,0.346 µM,0.0138 µM,0.00353 µM,0.155 µM,3.75 µM,> 10 µM,0.48 µM,0.00428 µM,1.28 µM,0.153 µM,4.1 µM,> 10 µM,0.0199 µM,3.63 µM,> 10 µM,7.88 µM
BT549,> 10 µM,> 10 µM,> 10 µM,> 10 µM,5.42 µM,0.0668 µM,0.318 µM,0.161 µM,0.00106 µM,7.26 µM,0.00539 µM,> 10 µM,0.00315 µM,> 10 µM,0.00951 µM,1.42 µM,0.0528 µM,0.582 µM,> 10 µM,0.00272 µM,2.78 µM,> 10 µM,> 10 µM,> 10 µM,3.97 µM,> 10 µM,> 10 µM,3.64 µM,> 10 µM,0.0124 µM,> 10 µM,3.97 µM,> 10 µM
MCF10A,> 10 µM,4.83 µM,> 10 µM,> 10 µM,5.9 µM,1.81 µM,6.21 µM,0.152 µM,0.504 µM,7 µM,0.00762 µM,> 10 µM,0.00588 µM,> 10 µM,0.032 µM,1.47 µM,0.0723 µM,0.181 µM,> 10 µM,0.00268 µM,1.88 µM,> 10 µM,> 10 µM,> 10 µM,0.34 µM,> 10 µM,> 10 µM,9.75 µM,> 10 µM,0.0162 µM,1.28 µM,9.08 µM,> 10 µM
MCF7,> 10 µM,0.577 µM,1.3 µM,0.185 µM,6.26 µM,0.0414 µM,0.0111 µM,0.0847 µM,0.00767 µM,3.65 µM,0.00871 µM,> 10 µM,0.00197 µM,> 10 µM,0.00456 µM,0.187 µM,0.0224 µM,0.151 µM,> 10 µM,0.00138 µM,0.13 µM,> 10 µM,> 10 µM,3.23 µM,0.0236 µM,> 10 µM,0.585 µM,5.7 µM,> 10 µM,0.00831 µM,3.8 µM,3.05 µM,4.82 µM
HCC70,0.0912 µM,0.0644 µM,0.14 µM,> 10 µM,4.53 µM,0.0412 µM,< 0.001 µM,0.0784 µM,0.00336 µM,3.18 µM,0.00765 µM,2.78 µM,0.00349 µM,> 10 µM,0.00585 µM,0.437 µM,0.0148 µM,0.335 µM,0.0256 µM,0.00134 µM,0.161 µM,> 10 µM,> 10 µM,1.27 µM,1.9 µM,> 10 µM,4.51 µM,4.54 µM,> 10 µM,0.0129 µM,1.11 µM,1.84 µM,1.54 µM
HCC1806,> 10 µM,1.73 µM,> 10 µM,> 10 µM,5.39 µM,0.0166 µM,0.0128 µM,0.168 µM,0.278 µM,4.69 µM,0.0109 µM,> 10 µM,0.00322 µM,> 10 µM,0.0358 µM,1.05 µM,0.0688 µM,0.272 µM,> 10 µM,0.00143 µM,5.87 µM,> 10 µM,> 10 µM,> 10 µM,0.554 µM,> 10 µM,> 10 µM,4.93 µM,> 10 µM,0.0134 µM,> 10 µM,1.1 µM,> 10 µM
